Like-named read-outs stand apart in the source and are kept apart here. Square brackets hold non-standard residues; d marks the D form. Ends that are not written are not given here. Peptide text beside a SMILES is read from it. AEEA = NCCOCCOCC(=O)O
Experiments:
[1] = system: Acinetobacter baumannii ATCC® BAA-747™; type: cell-based
Experimental: (§1) In vitro bactericidal activity: The three peptide compounds BCC01-5RMP (SEQ ID NO: 21), BCC02-5RMP (SEQ ID NO: 22), and BCC03-5RMP (SEQ ID NO: 23) were assayed for in vitro bactericidal activity against Pseudomonas aeruginosa, Escherichia coli, Salmonella typhimurium, and Acinetobacter baumannii. The starting inoculum for all experiments was 1×10^6 colony forming units (CFU)/ml. The CFU remaining at the end of 60 to 180 minute incubation was determined, and the data plotted as a log reduction in CFU/ml.
(§2) For FIGS. 10-13, in vitro bactericidal assays were performed using a starting inoculum of 1×10^6 CFU/ml of the bacterial suspension. The CFU remaining at the end of the 60-180 minute incubation was determined, and the data was plotted as log reduction in CFU/ml.
(§3) In particular, each of the test peptides (CAP37 peptides 120-146WR, 120-146WH, and 95-122 (SEQ ID NOs: 30, 31, and 26, respectively)) was used at 25, 12.5, 6.25, and 3.12 μM. Gentamicin was used at 4 μg/ml. 1×10^6/ml Acinetobacter baumannii ATCC® BAA-747™ or Pseudomonas aeruginosa ATCC® 27853™ (American Type Culture Collection, Manassas, Va.) were incubated with the peptides, negative buffer control (tryptone saline), and positive control gentamicin at pH 5.5 or 7.2. A 60 minute incubation was used for Acinetobacter baumannii ATCC® BAA-747™, while a 180 minute incubation was used for Pseudomonas aeruginosa ATCC® 27853™. 50 μl aliquots were plated out on agar plates and incubated overnight. Colony forming units were counted after overnight incubation and CFU/ml calculated.

[2] = system: Pseudomonas aeruginosa ATCC® 27853™; type: cell-based; parameters: Effects of Peptide Compounds on Pseudomonas aeruginosa ATCC ® 27853 ™: unit not given here; settings: for activity against P. aeruginosa: 120-146WR at 25 μM; for Effects of Peptide Compounds on Pseudomonas aeruginosa ATCC ® 27853 ™: Table 6; for effectiveness against Pseudomonas aeruginosa compared with gentamicin, pH 7.2: peptide at 25 VIM (so in the source)
Experimental: as §1, §2, §3
For FIG. 14, 1×10^6/ml Pseudomonas aeruginosa ATCC® 27853™ were incubated with each of the test peptides (CAP37 peptides 120-146WR, 120-146WH, 120-146QR, 120-146QH, 120-146QR-5RMP, and 120-146QH-5RMP (SEQ ID NOs: 30, 31, 28, 29, 32, and 33, respectively)) at 150, 75, and 37.5 μg/ml, or negative buffer control (tryptone saline), for 180 minutes at pH 5.5. 50 μl aliquots were plated out on agar plates and incubated overnight. Colony forming units were counted after overnight incubation and CFU/ml calculated.

[3] = system: E. coli ATCC® strain 25922™; type: cell-based, Escherichia coli; parameters: unit not given here; settings: Table 6
Experimental: as §1

swine skin wounds [4] = experiment: Swine dermal wound model, histological evaluation; type: in vivo; settings: day 14 post-wounding; for Histopathology Results, Mean Angiogenesis / Histopathology Results, Mean Epithelization / Histopathology Results, Mean Granulation / Histopathology Results, Mean Inflammation: 3 mg/ml
Experimental: The characteristics that were measured are required to indicate features of a well-healed wound. Inflammation should be low and re-epithelialization high.
(§4) Full thickness excisional wounds were induced on the dorsum of swine (N=3) using a 1.0 cm biopsy punch. Treatments were administered (0.20 ml) to each wound (N=6 wounds per group), and the wounds were dressed with standard occlusive dressing ([…]™, 3M Corporation, St. Paul, Minn.). Treatments were reapplied daily and dressings changed. Clinical wound healing observations and wound area (2 mm) measurements were performed on days 0, 3, 5, 7, 10, and 14 post-wounding. Wound area (2 mm) data were expressed as percentage (%) of wound healing. Animals were terminated on day 14 with wounds harvested and processed for histological evaluation. […] All peptide formulation treatment groups healed faster with greater rate of closure and re-epithelialization over time, as compared to the saline control (Group A).
The histology correlated with the clinical observations. […] There were minimal differences in the amount or character of granulation tissue, inflammation, and angiogenesis. All the wounds were well filled and vascularized.

swine skin wounds [5] = experiment: Swine full thickness excisional dermal wound model, wound area; type: in vivo; settings: for Mean Wound Healing (%) Day 0 / Mean Wound Healing (%) Day 3 / Mean Wound Healing (%) Day 5 / Mean Wound Healing (%) Day 7 / Mean Wound Healing (%) Day 10 / Mean Wound Healing (%) Day 14: 3 mg/ml, 0.20 ml per wound, reapplied daily; for dermal wound healing: topical 3 mg/ml over 14 days, vs saline
Experimental: In this Example, peptide compounds of the presently disclosed and claimed inventive concept(s) were evaluated as to their activity on the dermal wound healing process in a clinically relevant swine full thickness excisional wound model. Three different peptide formulations (Group B, Peptide 95-122 (SEQ ID NO: 26); Group C, Peptide 120-146WH (SEQ ID NO: 31); and Group D, Peptide 120-146QH-5RMP (SEQ ID NO: 33)) were each evaluated at the same concentration (3 mg/ml). Sterile saline served as the control (Group A).
as §4

[6] = system: Pseudomonas clinical isolate B64; experiment: BIOSCREEN C growth assay / MIC, antibiotic in combination with peptide; type: cell-based, P. aeruginosa; settings: for MIC, antibiotic alone: clinical isolate of P. aeruginosa, 1×10^5 CFU/well, 24 hours
Experimental: The peptide and antibiotics were set up in the wells of the microtiter plate at starting ratios of MIC equivalents of antibiotic:peptide at 3:1, 1:1, and 1:3. They were serially diluted to concentrations well below suboptimal/sublethal levels of the antibiotic and peptide. The organism was added (1×10^5 CFU/well), the BIOSCREEN C™ assay (Growth Systems USA, Piscataway, N.J.) was performed, and data was collected over 24 hours.

[7] = system: mouse cornea (corneal epithelial abrasion); experiment: In vivo model of corneal wound healing; settings: treated at 0 and 16 hours; 95-122 10^−5 M; 120-146WH 10^−8 M or 10^−6 M; HB-EGF 250 ng/ml
Experimental: The in vivo model of wound healing was carried out using a disposable biopsy punch (2 mm, Miltex, York, Pa.) to demarcate the mouse cornea and a 0.5 mm burr using the AlgerBrush II (The Alger Company, Inc., Lago Vista, Tex.) to remove the corneal epithelium.
Mice were anesthetized using ketamine (100 mg/kg; Bionichepharma, LLC., St. Lake Forrest, Ill.) and xylazine ([…]; Rompun; Bayer Corp., Shawnee Mission, Kans.), and the right cornea was wounded as follows. A disposable biopsy punch (2 mm, Miltex, York, Pa.) was used to demarcate the mouse cornea. The corneal epithelium was carefully removed within the 2 mm demarcated area with a 0.5 mm burr using the AlgerBrush II (The Alger Company, Inc., Lago Vista, Tex.). The corneal abrasions were treated at 0 and 16 hours with HB-EGF (250 ng/ml), rCAP37 (250 ng/ml), or vehicle control (0.9% sodium chloride, pH 5.5, Baxter, Deerfield, Ill.). Corneal abrasions were visualized using sterile fluorescein sodium ophthalmic strips USP (FLUORETS®, Chauvin Laboratory, Aubenas, France) dampened with sterile PBS. Images were taken at 0, 16, 24, and 48 hours immediately following fluorescein staining using a surgical microscope equipped with a camera (Carl Zeiss OPMI VISU 140, Carl Zeiss Surgical, Inc., Oberkochen, Germany). The areas of the open wound were quantitated using ImageJ software (US National Institutes of Health), and the results were reported as the percentage of wound closure.
Whole mouse eyes were collected for histology at 0, 6, 16, 24, and 48 hours post wounding and were immediately placed in Prefer fixative (Anatech LTD., Battle Creek, Mich.) for 20 minutes before being transferred to 70% ethanol. Tissues were paraffin-embedded and cut at a thickness of 5 μm, mounted on SUPERFROSTPLUS® slides (Statlab Medical Products, Lewisville, Tex.), and subsequently deparaffinized, rehydrated, and washed in deionized water. Sections were stained with hematoxylin (Leica Microsystems, Buffalo Grove, Ill.) and rinsed twice in deionized water before being washed in Blue Buffer (Leica Microsystems). The sections were finally washed in deionized water and 95% ethanol prior to being counterstained with eosin (Leica Microsystems). Sections were dehydrated in ethanol and cleared in xylene.

gentamicin [reference compound]
activity against Acinetobacter baumannii at pH 5.5 ([1]; gentamicin 4 μg/ml, 60 minutes): unable to kill the bacteria
activity against Acinetobacter baumannii at pH 7.2 ([1]; gentamicin 4 μg/ml, 60 minutes): active against the bacteria
activity against P. aeruginosa ([2]; gentamicin 4 μg/ml): highly active
log reduction of CFU/ml, Pseudomonas aeruginosa, pH 5.5 ([2]; gentamicin 4 μg/ml, 180 minutes, FIG. 13): 2 log

CC[C@H](C)[C@H](NC(=O)[C@H](CC(C)C)NC(=O)[C@H](C)NC(=O)CNC(=O)CNC(=O)[C@H](CS)NC(=O)[C@H](Cc1ccccc1)NC(=O)[C@H](Cc1c[nH]cn1)NC(=O)[C@H](CCCNC(=N)N)NC(=O)CNC(=O)[C@H](CCC(N)=O)NC(=O)[C@H](CC(N)=O)NC(=O)COCCOCCNC(=O)COCCOCCN)C(=O)N[C@@H](Cc1c[nH]cn1)C(=O)N[C@@H](C)C(=O)N[C@@H](CCCNC(=N)N)C(=O)N[C@@H](Cc1ccccc1)C(=O)N[C@H](C(=O)N[C@@H](CCSC)C(=O)N[C@H](C(=O)N[C@@H](C)C(=O)N[C@@H](C)C(=O)N[C@@H](CO)C(=O)N[C@@H](CO)C(=O)N[C@@H](Cc1ccccc1)C(=O)N[C@@H](CCC(N)=O)C(=O)O)[C@@H](C)O)C(C)C [BCC03-MP] (H-[AEEA][AEEA]NQGRHFCGGALIHARFVMTAASSFQ-OH; N-terminus and C-terminus assumed)
Effects of Peptide Compounds on Escherichia coli ATCC ® 25922 ™ ([3]; Peptide Conc 6.25 μg/ml): 6.4
Effects of Peptide Compounds on Escherichia coli ATCC ® 25922 ™ ([3]; Peptide Conc 200 μg/ml): 46.0
Effects of Peptide Compounds on Pseudomonas aeruginosa ATCC ® 27853 ™ ([2]; Peptide Conc 12.5 μg/ml): −45.6
Effects of Peptide Compounds on Pseudomonas aeruginosa ATCC ® 27853 ™ ([2]; Peptide Conc 50 μg/ml): −2.9
Effects of Peptide Compounds on Pseudomonas aeruginosa ATCC ® 27853 ™ ([2]; Peptide Conc 100 μg/ml): 44.0

CC(C)C[C@H](NC(=O)[C@H](CCCNC(=N)N)NC(=O)CNC(=O)CNC(=O)[C@H](CO)NC(=O)[C@H](Cc1c[nH]cn1)NC(=O)[C@H](CCC(N)=O)NC(=O)[C@H](CO)NC(=O)CNC(=O)[C@H](Cc1c[nH]c2ccccc12)NC(=O)CNC(=O)[C@H](C)NC(=O)[C@@H](NC(=O)[C@H](CCC(N)=O)NC(=O)[C@H](CS)NC(=O)[C@H](CCCNC(=N)N)NC(=O)[C@@H](NC(=O)CNC(=O)[C@H](CCCNC(=N)N)NC(=O)[C@H](CCCNC(=N)N)NC(=O)[C@H](CCCNC(=N)N)NC(=O)[C@H](CCCNC(=N)N)NC(=O)COCCOCCNC(=O)COCCOCCN)[C@@H](C)O)C(C)C)C(=O)N[C@@H](CO)C(=O)N[C@@H](CCCNC(=N)N)C(=O)N[C@@H](Cc1ccccc1)C(=O)N1CCC[C@H]1C(=O)N[C@@H](CCCNC(=N)N)C(=O)N[C@@H](Cc1ccccc1)C(=O)N[C@H](C(=O)N[C@@H](CC(N)=O)C(=O)N[C@H](C(=O)N[C@@H](CCCNC(=N)N)C(=O)O)C(C)C)C(C)C [120-146QH-5RMP] (H-[AEEA][AEEA]RRRRGTRCQVAGWGSQHSGGRLSRFPRFVNVR-OH; N-terminus and C-terminus assumed)
epidermal resurfacing and maturation of the epidermis versus saline control (swine skin wounds [4]): greater extent of epidermal resurfacing and maturation of the epidermis
Histopathology Results, Mean Angiogenesis (swine skin wounds [4]): 1.3
Histopathology Results, Mean Epithelization (swine skin wounds [4]): 4.0
Histopathology Results, Mean Granulation (swine skin wounds [4]): 4.0
Histopathology Results, Mean Inflammation (swine skin wounds [4]): 0.5
Mean Wound Healing (%) Day 0 (swine skin wounds [5]): 0.0%
Mean Wound Healing (%) Day 3 (swine skin wounds [5]): 22.5%
Mean Wound Healing (%) Day 5 (swine skin wounds [5]): 34.1%
Mean Wound Healing (%) Day 7 (swine skin wounds [5]): 64.1%
Mean Wound Healing (%) Day 10 (swine skin wounds [5]): 93.7%
Mean Wound Healing (%) Day 14 (swine skin wounds [5]): 98.0%
dermal wound healing (swine skin wounds [5]): accelerate dermal wound healing

GTRCQVAGWGSWRSGGRLSRFPRFVNV [Peptide 120-146WR]
activity against A. baumannii at 12.5 μM ([1]; 12.5 μM): highly active
activity against A. baumannii at 25 μM [1]: highly active
activity against P. aeruginosa ([2]; gentamicin 4 μg/ml): highly active
effectiveness against Pseudomonas aeruginosa compared with gentamicin, pH 7.2 ([2]; gentamicin 4 μg/ml): as effective as the standard antibiotic gentamicin

CO/N=C(\C(=O)N[C@@H]1C(=O)N2C(C(=O)O)=C(COC(C)=O)CS[C@H]12)c1csc(N)n1 [Cefotaxime, reference compound]
bactericidal impact of antibiotic alone at sublethal concentration ([6]; 2.8 μg/ml of Cefotaxime): very little bactericidal impact
MIC, antibiotic alone [6]: 15 mg/L

GTRCQVAGWGSWHSGGRLSRFPRFVNV [Peptide 120-146WH]
epidermal resurfacing and maturation of the epidermis versus saline control (swine skin wounds [4]): greater extent of epidermal resurfacing and maturation of the epidermis
Histopathology Results, Mean Angiogenesis (swine skin wounds [4]): 1.7
Histopathology Results, Mean Epithelization (swine skin wounds [4]): 3.7
Histopathology Results, Mean Granulation (swine skin wounds [4]): 4.0
Histopathology Results, Mean Inflammation (swine skin wounds [4]): 0.5
activity against A. baumannii at 25 μM [1]: highly active
corneal wound healing versus vehicle [7]: significantly greater
Mean Wound Healing (%) Day 0 (swine skin wounds [5]): 0.0%
Mean Wound Healing (%) Day 3 (swine skin wounds [5]): 22.1%
Mean Wound Healing (%) Day 5 (swine skin wounds [5]): 35.9%
Mean Wound Healing (%) Day 7 (swine skin wounds [5]): 59.7%
Mean Wound Healing (%) Day 10 (swine skin wounds [5]): 93.5%
Mean Wound Healing (%) Day 14 (swine skin wounds [5]): 97.5%
dermal wound healing (swine skin wounds [5]): accelerate dermal wound healing
effectiveness against Pseudomonas aeruginosa compared with gentamicin, pH 7.2 ([2]; gentamicin 4 μg/ml): as effective as the standard antibiotic gentamicin

C[C@H]1COc2c(N3CCN(C)CC3)c(F)cc3c(=O)c(C(=O)O)cn1c23 [Levofloxacin, reference compound]
MIC, antibiotic alone [6]: 15 mg/L

— patent publication US9862748B2, “Peptide compounds and methods of production and use thereof” (priority 2012, dated 2018)
